Assay results taken from publication PMC11258689, “A Snake Venom Peptide and Its Derivatives Prevent Aβ42 Aggregation and Eliminate Toxic Aβ42 Aggregates In Vitro” (ACS Chemical Neuroscience, 2024).
Non-standard residues stand in square brackets, D forms with d. Residues, ends and D or L forms follow the SMILES beside them.

Columns and labels:
[1] = tested on: SH-SY5Y cells; assay: MTT cell viability assay, SH-SY5Y; type: cell-based, human; conditions: 20 and 40 μM peptide, overnight, n = 3
Experimental: (§1) The cell viability assay was performed using the reduction of [3-(4,5-dimethylthiazol-2-yl)-2,5-diphenyl tetrazolium bromide-MTT] (Merck, Darmstadt, Germany) to investigate the cytotoxicity of the CDPs against SH-SY5Y (human neuroblastoma) and HEK293 (human embryonic kidney) cells. Both cell lines were purchased from the Leibniz Institute DSMZ-German collection of microorganisms and cell cultures GmbH. HEK293 cells were cultivated in Dulbecco’s modified Eagle’s medium high glucose (Merck, Darmstadt, Germany) containing 2% antibiotic solution of 10 000 units Penicillin, 10 mg streptomycin/ml (Merck, Darmstadt, Germany), and 10% fetal bovine serum (Merck, Darmstadt, Germany) at 37 °C with 5% CO2. […]
(§2) According to the manufacturer’s instructions, cell viability was measured using the Cell Proliferation Kit I (Roche, Basel, Switzerland). The absorbance of the formazan product was determined by measuring the absorption at 570 nm and subtracted from the absorbance at 660 nm.
(§3) The SH-SY5Y cells with a density of 10 000 cells (for HEK293 5000 cells) per well (total volume of 100 μL) were added to each well of a 96-well tissue culture plate (VWR North American) and incubated overnight at 37 °C with 5% CO2. […] Finally, the absorbance was measured at 570 and 660 nm using a CLARIO star plate reader (BMG labtech, Ortenberg, Germany), and the cell viability was calculated using eq 2: [drawing 2] […]

[2] = tested on: Aβ42 oligomers; assay: QIAD assay (Aβ42 aggregate size distribution, oligomer elimination); type: biochemical; conditions: 20 μM peptide added to 80 μM Aβ42 (pre-incubated 2 h), 30 min; density gradient, RP-HPLC UV 214 nm; n = 3
Experimental: In order to evaluate the efficacy of the peptides in eliminating Aβ42 oligomers, QIAD assays were performed.[39] Briefly, lyophilized Aβ42 (80 μM) was incubated for 2 h in sodium phosphate buffer for Aβ42 oligomerization. Then, each peptide (20 μM) was added to the Aβ42 solution and incubated for 30 min. Finally, samples were added on top of an iodixanol density gradient (5–50% (w/v) (OptiPrep, Sigma-Aldrich, Darmstadt, Germany) and centrifuged for 3 h at 4 °C and 259,000 x g (Optima TL-100, Beckman Coulter, Brea, CA, USA). For the sample analysis, 14 fractions (140 μL each) were collected from top to bottom. The top fractions, named fractions 1–2, contained Aβ42-monomers; fractions 4–6 contained the Aβ42-oligomers, which are of special interest; and the bottom fractions 11–14 contained high molecular weight of aggregated Aβ42. Each density gradient fraction was analyzed by Reversed Phase Liquid Chromatography. For this an Agilent 1260 Infinity II (Santa Clara, California, USA) system was equipped with an Agilent Zorbax SB-300 C-8 5 μm, 4.6 × 250 mm Column (Santa Clara, California, USA) and a multi-wavelength detector set to acquire the UV absorbance at 214 nm. H2O + 0.1% trifluoroacetic acid (AppliChem, Darmstadt, Germany) and acetonitrile (Roth, Karlsruhe, Germany) + 0.1% trifluoroacetic acid were used as eluent A and B, respectively. The acquisition method consisted of an initial isocratic step at 15% B, followed by a gradient from 15% B to 45% B in 10 min and another isocratic step at 45% B. The column temperature was set to 80 °C for the entire analysis. This method ensured full separation of the iodixanol density gradient medium and Aβ42 in all fractions. Aβ42 peaks were analyzed and integrated by the Agilent OpenLab 2.5 software. All measurements were performed in triplicate (n = 3), and data are presented as mean ± SM.

[3] = tested on: HEK293 cells; assay: MTT cell viability assay, HEK293; type: cell-based, human; conditions: 20 and 40 μM peptide, overnight, n = 3
Experimental: as §1, §2, §3

[4] = molecular target: T1, Aβ42 (Homo sapiens, UniProt P05067); assay: Thioflavin T (ThT) assay of Aβ42 aggregation; type: biochemical; conditions: 28 μM peptide, 10 μM Aβ42, 5 μM ThT, 24 h, room temperature; mean of n = 3
T1 construct: purchased Bachem, Bubendorf, Switzerland
T1 sequence (P05067 672-713 limits assumed): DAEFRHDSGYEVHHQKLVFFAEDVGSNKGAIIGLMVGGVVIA
Experimental: To evaluate the ability of the peptides to prevent Aβ42 aggregation, a ThT assay was performed. Aβ42 (10 μM), ThT (5 μM), and the peptides (28 μM) were incubated in 96-well plates for 24 h at room temperature in a plate reader (Clariostar, BMG Labtech, Ortenberg, Germany). During this time, the ThT fluorescence was measured every 6 minutes with an excitation of 440 nm and emission of 490 nm. The data were corrected considering the blank wells (without Aβ42 and the peptides). None of the peptides interact with ThT alone or has autofluorescence properties. All measurements were performed in triplicate (n = 3), and data are presented as mean ± SM.
Different concentrations were titrated to investigate CDP-1 and -2 dose dependency on the Aβ42 aggregate formation, and a ThT assay was performed as described before. The effect of 0, 0.5, 1, 3, 6, 13, and 28 μM peptides was tested against 10 μM Aβ42 over 24 h. All experiments were performed in triplicate (n = 3), and data are presented as mean ± SM.

[5] = tested on: Aβ42 aggregates; assay: sFIDA assay of Aβ42 aggregate elimination; type: biochemical; conditions: n = 3; for sFIDA signal reduction compared with the control: 50 nM peptide, 1 nM Aβ42 aggregates, overnight, room temperature, PBS, TIRFM pixel count
Experimental: To determine the influence of peptides on Aβ42 aggregates, an sFIDA assay was performed. The principle was previously described.[29] Therefore, we used pretreated 384 glass bottom microtiterplates (Sensoplate plus, Greiner Bio-One GmbH, Frickenhausen, Germany) to immobilize the capture-antibody Nab228 (Sigma-Aldrich, St. Louis, Missouri, USA) in a concentration of 2.5 μg/mL in 0.1 M carbonate buffer (Carl Roth, Karlsruhe, Germany). After an overnight incubation at 4 °C, the plate was washed five times with TBS and blocked with 80 μL of a 0.5% BSA solution in TBS with 0.03% ProClin 300 (Sigma-Aldrich, St. Louis, Mo, USA) for 1.5 h at room temperature.
The influence of 50 nM CDPs on 1 nM Aβ42 aggregates (prepared according to Ref ([70])) in PBS was determined by incubating them overnight at room temperature and 600 rpm. As a control, the same Aβ42 aggregates concentration was incubated without additions of peptides; instead, the buffer was added to contain the same end concentrations. The plate was washed as previously described, and 20 μL each of the peptide solution and a serial dilution of Aβ42 aggregates standards in PBS were added and incubated for 2 h at room temperature.
Afterward, 20 μL of 0.625 μg/mL IC-16 CF633 (Heinrich Heine Universität Düsseldorf, Germany) in TBS with 0.1% BSA was added to each well and incubated for 1 h at room temperature. This red fluorescently labeled detection antibody was labeled with CF633 succinimidyl ester (Sigma-Aldrich, St. Louis, Missouri, USA) after the manufacturer’s protocol. After a washing step to remove the redundant antibodies, 80 μL of TBS containing 0.03% Proclin were added.
By using a total internal reflection microscopy (TIRFM) (Leica Camera AG, Wetzlar, Germany), measurement (excitation: 635 nm, emission filter: 705/22 nm) was carried out with an oil immersion objective in 100× magnifications as previously described by Kass et al. 2022, and for each well, 25 of 14-bit grayscale images were measured with a size of 1000 × 1000 pixel each. […]

SMILES	cytotoxicity in SH-SY5Y cells [1]	Aβ42 in QIAD fractions 4–5 (oligomers) [2]	cytotoxicity in HEK293 cells [3]	ThT signal / Aβ42 aggregation compared to Aβ42 alone [4]	sFIDA signal reduction compared with the control [5]	Aβ42 in QIAD fraction 6 (oligomers) [2]	sFIDA effect on Aβ42 aggregates ([5]; Aβ42 aggregates treated with peptide, TIRFM)
COC(=O)[C@H](CCCCN)NC(=O)[C@H](CCCCN)NC(=O)[C@H](CO)NC(=O)[C@H](CO)NC(=O)[C@H](CCCCN)NC(=O)[C@H](Cc1c[nH]c2ccccc12)NC(=O)[C@H](CCCNC(=N)N)NC(=O)[C@H](Cc1c[nH]c2ccccc12)NC(=O)[C@H](CCCNC(=N)N)NC(=O)[C@H](CO)NC(=O)[C@H](CC(=O)O)NC(=O)[C@H](CCSC)NC(=O)[C@H](CCCCN)NC(C)=O [CDP-2] (Ac-KMDSRWRWKSSKK-OMe)	nontoxic	not detected	nontoxic	four times smaller	95.2%		
COC(=O)[C@@H](CCCCN)NC(=O)[C@@H](CCSC)NC(=O)[C@@H](CC(=O)O)NC(=O)[C@@H](CS)NC(=O)[C@@H](CCCNC(=N)N)NC(=O)[C@@H](Cc1c[nH]c2ccccc12)NC(=O)[C@@H](CCCNC(=N)N)NC(=O)[C@@H](Cc1c[nH]c2ccccc12)NC(=O)[C@@H](CCCCN)NC(=O)[C@@H](CS)NC(=O)[C@@H](CS)NC(=O)[C@@H](CCCCN)NC(=O)[C@@H](CCCCN)NC(C)=O [CDP-1D] (Ac-[dK][dK][dC][dC][dK][dW][dR][dW][dR][dC][dD][dM][dK]-OMe; N-terminus and C-terminus assumed)						significant reduction	decrease in aggregates
COC(=O)[C@H](CCCCN)NC(=O)[C@H](CCCCN)NC(=O)[C@H](CS)NC(=O)[C@H](CS)NC(=O)[C@H](CCCCN)NC(=O)[C@H](Cc1c[nH]c2ccccc12)NC(=O)[C@H](CCCNC(=N)N)NC(=O)[C@H](Cc1c[nH]c2ccccc12)NC(=O)[C@H](CCCNC(=N)N)NC(=O)[C@H](CS)NC(=O)[C@H](CC(=O)O)NC(=O)[C@H](CCSC)NC(=O)[C@H](CCCCN)NC(C)=O [CDP-1] (Ac-KMDCRWRWKCCKK-OMe; C-terminus assumed)	nontoxic	not detected	nontoxic	no Aβ42 aggregation was determined	61.1%		
